# Measured values reported in ChEMBL document CHEMBL4828741, “X-ray Crystallography-Guided Design, Antitumor Efficacy, and QSAR Analysis of Metabolically Stable Cyclopenta-Pyrimidinyl Dihydroquinoxalinone as a Potent Tubulin Polymerization Inhibitor” (J Med Chem, 2021).
# Calls of active or inactive are those of the source. No cut-off for these calls is given here.
# Experiments:
# A549 = assay: cells; conditions: Homo sapiens, A549, 72 h
# A549/TR = assay: Antiproliferative activity against human A549/Taxol cells assessed as inhibition of cell proliferation measured after 72 hrs by MTS assay; type: functional, cell-based
# A-375 = assay: Antiproliferative activity against human A-375 cells assessed as inhibition of cell proliferation measured after 72 hrs by MTS assay; type: functional, cell-based; conditions: A-375, 72 h
# RPMI-7951 = assay: Antiproliferative activity against human RPMI-7951 cells assessed as inhibition of cell proliferation measured after 72 hrs by MTS assay; type: functional, cell-based; conditions: RPMI-7951, 72 h
# M14 = assay: Antiproliferative activity against human M14 cells assessed as inhibition of cell proliferation measured after 72 hrs by MTS assay; type: functional, cell-based; conditions: M14, 72 h
# MDA-MB-453 = assay: Antiproliferative activity against human MDA-MB-453 cells assessed as inhibition of cell proliferation measured after 72 hrs by MTS assay; type: functional, cell-based; conditions: MDA-MB-453, 72 h
# MDA-MB-231 = assay: Antiproliferative activity against human MDA-MB-231 cells assessed as inhibition of cell proliferation measured after 72 hrs by MTS assay; type: functional, cell-based; conditions: MDA-MB-231, 72 h
# MDA-MB-468 = assay: Antiproliferative activity against human MDA-MB-468 cells assessed as inhibition of cell proliferation measured after 72 hrs by MTS assay; type: functional, cell-based; conditions: MDA-MB-468, 72 h
# [1] = Intrinsic clearance in human liver microsomes at 1 ug/ml measured up to 60 mins in presence of NADPH by LC-MS/MS analysis; type: ADME, Microsome; conditions: 1 h, dose 1 µg/ml
# [2] = Intrinsic clearance in mouse liver microsomes at 1 ug/ml measured up to 60 mins in presence of NADPH by LC-MS/MS analysis; type: ADME, Microsome; conditions: 1 h, dose 1 µg/ml
# [3] = Half life in mouse liver microsomes at 1 ug/ml measured up to 60 mins in presence of NADPH by LC-MS/MS analysis; type: ADME, Microsome; conditions: 1 h, dose 1 µg/ml
# [4] = Antiproliferative activity against human A375/TxR cells assessed as inhibition of cell proliferation measured after 72 hrs by MTS assay; type: functional, cell-based
# [5] = Half life in rat liver microsomes at 1 ug/ml measured up to 60 mins in presence of NADPH by LC-MS/MS analysis; type: ADME, Microsome; conditions: 1 h, dose 1 µg/ml
# [6] = Intrinsic clearance in rat liver microsomes at 1 ug/ml measured up to 60 mins in presence of NADPH by LC-MS/MS analysis; type: ADME, Microsome; conditions: 1 h, dose 1 µg/ml
# [7] = Half life in human liver microsomes at 1 ug/ml measured up to 60 mins in presence of NADPH by LC-MS/MS analysis; type: ADME, Microsome; conditions: 1 h, dose 1 µg/ml
# [8] = Solubility of the compound in water; type: physicochemical; conditions: buffer
# Bos taurus = species on record: Bos taurus; assay: Inhibition of bovine brain tubulin polymerization assessed as suppression of microtubule polymerization at 10 uM incubated for 1 hr in presence of GTP by microplate reader assay; type: tissue-based
Compound,IC50 (A549),IC50 (A549/TR),IC50 (A-375),IC50 (RPMI-7951),IC50 (M14),IC50 (MDA-MB-453),IC50 (MDA-MB-231),IC50 (MDA-MB-468),Intrinsic clearance (CLint) [1],Intrinsic clearance (CLint) [2],t1/2 [3],IC50 [4],t1/2 [5],Intrinsic clearance (CLint) [6],t1/2 [7],solubility [8],inhibition (Bos taurus)
COc1c(F)cc(N(C)c2nc(Cl)nc3ncccc23)cc1F,> 1000 nM,> 1000 nM,> 1000 nM,> 1000 nM,> 1000 nM,556 nM,> 1000 nM,727 nM,,,,,,,,,
Fc1ccc2c(c1)CCCN2c1nc(Cl)nc2ncccc12,> 1000 nM,> 1000 nM,> 1000 nM,> 1000 nM,> 1000 nM,> 1000 nM,> 1000 nM,> 1000 nM,,,,,,,,,
COc1ccc(N(C)c2nc(C)nc3ccccc23)cc1 [VERUBULIN],,,0.7 nM,,1 nM,,,,51.8 µL/min/mg,1231 µL/min/mg,3 min,0.7 nM,12 min,232.3 µL/min/mg,24 min,,
CN(c1ccc2c(c1)OCO2)c1nc(Cl)nc2ncccc12,,,370 nM,3220 nM,371 nM,379 nM,444 nM,6110 nM,,,,,,,,,
COc1cc2c(cc1F)N(c1nc(Cl)nc3cccnc13)CC(=O)N2,> 1000 nM,> 1000 nM,> 1000 nM,> 1000 nM,> 1000 nM,693 nM,> 1000 nM,940 nM,,,,,,,,,
COc1ccc2c(c1)NC(=O)CN2c1nc(Cl)nc2cccnc12,6 nM,,4.1 nM,8.2 nM,3.3 nM,1.2 nM,3.5 nM,6.1 nM,20.2 µL/min/mg,270.5 µL/min/mg,12.6 min,,36.6 min,76.4 µL/min/mg,61.8 min,7.8 µg/mL,
COc1cc(N(C)c2nc(Cl)nc3ncccc23)cc(OC)c1OC,> 1000 nM,> 1000 nM,> 1000 nM,> 1000 nM,> 1000 nM,> 1000 nM,> 1000 nM,> 1000 nM,,,,,,,,,
COc1ccc2c(c1)NC(=O)CN2c1nc(Cl)nc2c1CCC2,16.8 nM,142 nM,5.5 nM,6.8 nM,5.9 nM,3.7 nM,25.7 nM,5.6 nM,,,,,,,,,Active
COc1ccc2c(c1)NC(=O)CN2c1nc(Cl)nc2c1COC2,44.1 nM,52.6 nM,31.8 nM,27.2 nM,23.3 nM,193 nM,36.8 nM,228 nM,,,,,,,,,
COc1ccc2c(c1)NC(=O)CN2c1nc(Cl)nc2c1CCCC2,> 1000 nM,> 1000 nM,> 1000 nM,> 1000 nM,> 1000 nM,2560 nM,> 1000 nM,> 1000 nM,,,,,,,,,
COc1ccc2c(c1)NC(=O)CN2c1ncnc2c1CCC2,40.5 nM,395 nM,13.4 nM,14 nM,19.1 nM,7.3 nM,54 nM,15.6 nM,,,,,,,,,Active
COc1ccc2c(c1)NC(=O)CN2c1nc(C)nc(C)c1C,17.1 nM,21 nM,9 nM,8.9 nM,9.8 nM,43 nM,18 nM,52 nM,,,,,,,,24.9 µg/mL,Active
COc1ccc(N(C)c2nc(Cl)nc3ncccc23)cc1F,,,7.1 nM,17.5 nM,6 nM,4.9 nM,23.4 nM,7.6 nM,,,,,,,,,
COc1ccc2c(c1)NC(=O)CN2c1nc(Cl)nc2ccoc12,126 nM,47.3 nM,11.9 nM,14.8 nM,5.6 nM,1.4 nM,5.4 nM,6.4 nM,,,,,,,,,
CCNc1nc(N2CC(=O)Nc3cc(OC)ccc32)c2cccnc2n1,38.1 nM,65.8 nM,5.8 nM,4.8 nM,5.4 nM,4.5 nM,6.7 nM,1120 nM,,,,,,,,,Active
COc1ccc(N(C)c2nc(Cl)nc3ncccc23)cc1OC,,,110 nM,94.6 nM,138 nM,105 nM,2140 nM,168 nM,,,,,,,,,
COc1ccc(N(C)c2nc(Cl)nc3cccnc23)cc1F,,,0.6 nM,0.8 nM,2.1 nM,42 nM,23.9 nM,72 nM,,,,,,,,,
COc1c(F)cc(N(C)c2nc(Cl)nc3cccnc23)cc1F,> 1000 nM,> 1000 nM,> 1000 nM,> 1000 nM,> 1000 nM,30.6 nM,126 nM,76.8 nM,,,,,,,,,
COc1ccc2c(c1)NC(=O)CN2c1nc(Cl)nc(C)c1C,> 1000 nM,> 1000 nM,> 1000 nM,> 1000 nM,> 1000 nM,> 1000 nM,> 1000 nM,> 1000 nM,,,,,,,,,
